In patent US5418235A, “Aminoalkyl-substituted 5-mercaptothiazoles, the preparation and use thereof” (BASF Aktiengesellschaft, priority 1991, dated 1995):
Structures can show the parent of a compound that is named as a salt. Where two headings read alike, the source gives them in different places.

Biological target: dopamine D2 receptor (Rattus norvegicus, UniProt P61169)
Assay: Receptor binding assay, 3H-ADTN displacement on rat striatal membranes (affinity for the dopamine D2 receptor)
Set-up: species or system rat (Sprague Dawley)
[1] = rat striatal membranes, 1 nM 3H-ADTN, 0.1 μM SCH 23390, 40 min at 25° C., non-specific binding with 50 nM spiperone, read-out: Ki, affinity of the test substances for the dopamine D2 receptor

dopamine D2 receptor, sequence (P61169 whole entry): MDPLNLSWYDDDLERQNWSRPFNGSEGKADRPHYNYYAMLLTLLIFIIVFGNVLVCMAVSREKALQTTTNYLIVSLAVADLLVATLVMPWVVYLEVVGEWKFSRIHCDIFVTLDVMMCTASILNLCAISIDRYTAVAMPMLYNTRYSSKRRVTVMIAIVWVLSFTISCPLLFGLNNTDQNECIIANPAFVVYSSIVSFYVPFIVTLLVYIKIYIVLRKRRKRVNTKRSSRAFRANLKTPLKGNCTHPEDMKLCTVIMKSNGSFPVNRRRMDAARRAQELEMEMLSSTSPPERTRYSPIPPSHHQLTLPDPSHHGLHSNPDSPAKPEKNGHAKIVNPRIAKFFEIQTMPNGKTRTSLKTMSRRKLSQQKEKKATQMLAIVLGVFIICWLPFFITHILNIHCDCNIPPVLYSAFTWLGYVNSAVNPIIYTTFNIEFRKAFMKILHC
Method: Striata from rats (Sprague Dawley, Charles River) were homogenized immediately after removal in 0.32M sucrose solution (0° C.). The homogenate was filtered through gauze, the filtrate was centrifuged at 1000 ×g (5 min at 4° C.) and the resulting supernatant was centrifuged at 40000 ×g (4° C., 10 min). The residue (membranes) was taken up in incubation buffer (50 mM tris-HCl, 1 mM MgCl2 and 0.1% ascorbic acid, pH 7.4) and incubated at 37° C. for 20 min. The residue was subsequently washed 2× with incubation buffer by resuspension and recentrifugation. The membranes were frozen in portions in liquid nitrogen.
The assay mixtures (1 ml) were composed of membranes (380 μg of protein), 1 nM ^3 H-ADTN (NEN, Dreieich Germany, specific radioactivity 1.4 TBq/mmol) and 0.1 μM SCH 23390 (total binding) or a) with the addition of 50 nM spiperone (non-specific binding) or b) with test substance. The mixtures were prepared in triplicate.
After the incubation (40 min at 25° C.) the mixtures were filtered through glass fiber filters (Whatman GF/B) and briefly washed with ice-cold washing buffer (tris-HCl, pH 7.4). The radioactivity retained on the filters was determined by liquid scintillation counting. The non-specific binding comprised about 40-50% of the total binding.
The evaluation of the competition plots and the determination of the dissociation constant took place by iterative non-linear regression analysis based on the "ligand" program (Muson and Rodbard: Anal. Biochem. 107 (1980) 220).

Row | Ki [1] | SMILES | Ki
1 | 19 nM | Cc1nc(N)sc1SCCN1CCN(c2ccccc2)CC1 [Example 3, 2-Amino-4-methyl-5-[2-(4-phenylpiperazinyl)ethylthio]thiazole hydrochloride] | –
2 | 9 nM | CCCN(CCCSc1sc(N)nc1C)CCc1ccccc1 [Example 7, 2-Amino-4-methyl-5-[3-(N-phenethyl-N-propylamino)propylthio]thiazole tartrate] | –
3 | 12 nM | Cc1nc(N)sc1SCCN1CCC(c2ccccc2)CC1 [Example 1, 2-Amino-4-methyl-5-[2-(4-phenylpiperidinyl)ethyl-thio]thiazole hydrochloride] | –
4 | 18 nM | CCCN(CCSc1sc(N)nc1C)CCc1ccccc1 [Example 5, 2-Amino-4-methyl-5-[2-(N-phenethyl-N-propylamino)-ethylthio]thiazole hydrochloride] | –
5 | – | Cc1nc(N)sc1SCCN1CC=C(c2ccccc2)CC1 [Example 2, 2-Amino-5-[2-(1,2,3,6-tetrahydro-4-phenylpyridinyl)-ethylthio]-4-methylthiazole hydrochloride] | 3 nM
